Molecular target: T1, PLK1 (Homo sapiens, UniProt P53350)
T1 construct: endogenous in cells; host or cells: HeLa LgBit (Plk1-HiBit KI): HeLa stably expressing LgBit, with a CRISPR/Cas9 knock-in of HiBit at the endogenous PLK1 locus
Experiment: Luciferase assay for PLK1 in HeLa LgBit (Plk1-HiBit KI) cell line
Assay type: cell-based
Settings: 300 nM compound, luminescence after 9 hours
Protocol: 2. Luciferase Assay for PLK1
(1) Preparation and Culture of HeLa LgBit (Plk1-HiBit KI) Cell Line
A HeLa cell line in which the LgBit vector was transfected and expressed stably was prepared. Then, after constructing gRNA and donor to express the HiBit amino acid sequence behind the C-terminal of the Plk1 gene, which was inherent in the cell, it was inserted into the cell together with a vector capable of expressing CRISPR/Cas9. Only the cells in which the insertion was completed and knock-in had progressed were selected, sub-cultured and used.
(2) Treatment of Compounds of the Present Invention and Method of Luciferase Assay
In the case of HeLa LgBit (Plk1-HiBit KI), the compounds were treated after being released after thymidine block, and the process was as follows. Thymidine (Sigma-Aldrich Cat. No. T9250-5G) was completely dissolved in DW and used in the experiment. For thymidine block, the products were treated with 2 mM of thymidine and then incubated for 24 hours. For release and chemical treatment, the medium was suctioned and washed with 1×PBS. TrypLE™ was added and incubated in 37° C. CO2 incubator for 5 min. Cells neutralized by adding complete media were counted through a counter. For each well of a 96-well culture plate (SPL), 3.3×10^4 cells and a total medium volume of 150 μL were seeded and incubated in a CO2 incubator.
Each cell line was incubated in a CO2 incubator for 18 hours, and Endurazine was added to each well to make up 4% of the total volume. After adding the compound of the present invention in a 96-well white plate (SPL) to a concentration of 300 nM, the wavelength of the plate reader (BMG Labtech, CLARIOstar Plus) was set to […], and then the luminescence was tracked in real time.
In Table 2, Activity represents the ratio of the luminescense value of each Exemplary Compound treatment group to DMSO treatment group (+++: <0.3, ++<0.6, +<0.7).

T1 sequence (P53350 whole entry): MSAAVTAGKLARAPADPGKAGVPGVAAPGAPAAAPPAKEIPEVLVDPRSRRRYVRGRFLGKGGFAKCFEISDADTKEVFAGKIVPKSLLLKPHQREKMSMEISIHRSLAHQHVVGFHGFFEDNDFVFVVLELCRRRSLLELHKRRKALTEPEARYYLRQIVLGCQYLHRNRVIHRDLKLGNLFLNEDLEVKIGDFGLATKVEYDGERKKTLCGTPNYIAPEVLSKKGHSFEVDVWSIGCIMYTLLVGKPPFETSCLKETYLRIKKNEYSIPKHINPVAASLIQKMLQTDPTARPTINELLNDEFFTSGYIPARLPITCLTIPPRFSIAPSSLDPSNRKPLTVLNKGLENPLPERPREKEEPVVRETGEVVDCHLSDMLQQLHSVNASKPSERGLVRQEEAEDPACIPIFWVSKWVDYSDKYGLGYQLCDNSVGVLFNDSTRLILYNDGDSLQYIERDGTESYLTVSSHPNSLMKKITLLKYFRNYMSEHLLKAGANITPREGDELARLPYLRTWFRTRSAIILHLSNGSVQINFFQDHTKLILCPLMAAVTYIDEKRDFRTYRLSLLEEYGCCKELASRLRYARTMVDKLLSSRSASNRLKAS

Row | SMILES | Activity: ratio of the luminescense value of each Exemplary Compound treatment group to DMSO treatment group
1 | COc1cc(C(=O)NC2CCN(C(=O)CC[C@H]3CN(Cc4cccc5c4C(=O)N(C4CCC(=O)NC4=O)C5=O)CCO3)CC2)ccc1Nc1ncc2c(n1)N(C1CCCC1)CC(F)(F)C(=O)N2C (stereo partly drawn) [Compound 174, 4-((9-cyclopentyl-7,7-difluoro-5-methyl-6-oxo-6,7,8,9-tetrahydro-5H-pyrimido[4,5-b][1,4]diazepin-2-yl)amino)-N-(1-(3-((2S)-4-((2-(2,6-dioxopiperidin-3-yl)-1,3-dioxoisoindolin-4-yl)methyl)morpholin-2-yl)propanoyl)piperidin-4-yl)-3-methoxybenzamide] | ++ (++<0.6)
2 | COc1cc(C(=O)NC2CC(N(C)CC3CCN(c4cccc5c4C(=O)N(C4CCC(=O)NC4=O)C5=O)CC3)C2)ccc1Nc1ncc2c(n1)N(C1CCCC1)CC(F)(F)C(=O)N2C (centres unmarked) [Compound 105, 4-((9-cyclopentyl-7,7-difluoro-5-methyl-6-oxo-6,7,8,9-tetrahydro-5H-pyrimido[4,5-b][1,4]diazepin-2-yl)amino)-N-(3-(((1-(2-(2,6-dioxopiperidin-3-yl)-1,3-dioxoisoindolin-4-yl)piperidin-4-yl)methyl)(methyl)amino)cyclobutyl)-3-methoxybenzamide] | ++ (++<0.6)
3 | COc1cc(C(=O)NN2CCN(C3CCN(c4ccc5c(c4)C(=O)N(C4CCC(=O)NC4=O)C5=O)CC3(F)F)CC2)ccc1Nc1ncc2c(n1)N(C(C)C)CC(F)(F)C(=O)N2C (centres unmarked) [Compound 168, 4-((7,7-difluoro-9-isopropyl-5-methyl-6-oxo-6,7,8,9-tetrahydro-5H-pyrimido[4,5-b][1,4]diazepin-2-yl)amino)-N-(4-(1-(2-(2,6-dioxopiperidin-3-yl)-1,3-dioxoisoindolin-5-yl)-3,3-difluoropiperidin-4-yl)piperazin-1-yl)-3-methoxybenzamide] | ++ (++<0.6)
4 | COc1cc(C(=O)NC2CCN(CCCc3cccc4c3C(=O)N(C3CCC(=O)NC3=O)C4=O)CC2)ccc1Nc1ncc2c(n1)N(C1CCCC1)CC(F)(F)C(=O)N2C (centres unmarked) [Compound 14, 4-((9-cyclopentyl-7,7-difluoro-5-methyl-6-oxo-6,7,8,9-tetrahydro-5H-pyrimido[4,5-b][1,4]diazepin-2-yl)amino)-N-(1-(3-(2-(2,6-dioxopiperidin-3-yl)-1,3-dioxoisoindolin-4-yl)propyl)piperidin-4-yl)-3-methoxybenzamide] | ++ (++<0.6)
5 | CN1C(=O)C(F)(F)CN(C2CCCC2)c2nc(Nc3ccc(C(=O)NC4CCN(C(=O)CCN5CCN(c6cccc7c6C(=O)N(C6CCC(=O)NC6=O)C7=O)CC5)CC4)cc3C(F)(F)F)ncc21 (centres unmarked) [Compound 75, 4-((9-cyclopentyl-7,7-difluoro-5-methyl-6-oxo-6,7,8,9-tetrahydro-5H-pyrimido[4,5-b][1,4]diazepin-2-yl)amino)-N-(1-(3-(4-(2-(2,6-dioxopiperidin-3-yl)-1,3-dioxoisoindolin-4-yl)piperazin-1-yl)propanoyl)piperidin-4-yl)-3-(trifluoromethyl)benzamide] | ++ (++<0.6)
6 | C=CC[C@H]1CN(C2CCCC2)c2nc(Nc3ccc(C(=O)NC4CCN(C(=O)CCN5CCN(c6cccc7c6C(=O)N(C6CCC(=O)NC6=O)C7=O)CC5)CC4)cc3OC)ncc2N(C)C1=O (single isomer, unassigned) [Compound 70, 4-((7-allyl-9-cyclopentyl-5-methyl-6-oxo-6,7,8,9-tetrahydro-5H-pyrimido[4,5-b][1, 4]diazepin-2-yl)amino)-N-(1-(3-(4-(2-(2,6-dioxopiperidin-3-yl)-1,3-dioxoisoindolin-4-yl)piperazin-1-yl)propanoyl)piperidin-4-yl)-3-methoxybenzamide] | ++ (++<0.6)
7 | COc1cc(C(=O)N2CCC(N3CCN(CCOCCNc4ccc5c(c4)C(=O)N(C4CCC(=O)NC4=O)C5=O)CC3)CC2)c(F)cc1Nc1ncc2c(n1)N(C1CCCC1)CC(F)(F)C(=O)N2C (centres unmarked) [Compound 191, 5-((2-(2-(4-(1-(4-((9-cyclopentyl-7,7-difluoro-5-methyl-6-oxo-6,7,8,9-tetrahydro-5H-pyrimido[4,5-b][1,4]diazepin-2-yl)amino)-2-fluoro-5-methoxybenzoyl)piperidin-4-yl)piperazin-1-yl)ethoxy)ethyl)amino)-2-(2,6-dioxopiperidin-3-yl)isoindoline-1,3-dione] | ++ (++<0.6)
8 | COc1cc(C(=O)NC2CCN(CCNc3cccc4c3C(=O)N(C3CCC(=O)NC3=O)C4=O)CC2)c(F)cc1Nc1ncc2c(n1)N(C1CCCC1)CC(F)(F)C(=O)N2C (centres unmarked) [Compound 1, 4-((9-cyclopentyl-7,7-difluoro-5-methyl-6-oxo-6,7,8,9-tetrahydro-5H-pyrimido[4,5-b][1,4]diazepin-2-yl)amino)-N-(1-(2-((2-(2,6-dioxopiperidin-3-yl)-1,3-dioxoisoindolin-4-yl)amino)ethyl)piperidin-4-yl)-2-fluoro-5-methoxybenzamide] | ++ (++<0.6)
9 | COc1cc(C(=O)NC2CCN(CC3CCN(c4cccc5c4C(=O)N(C4CCC(=O)NC4=O)C5=O)C3)CC2)ccc1Nc1ncc2c(n1)N(C1CCCC1)CC(F)(F)C(=O)N2C (centres unmarked) [Compound 46, 4-((9-cyclopentyl-7,7-difluoro-5-methyl-6-oxo-6,7,8,9-tetrahydro-5H-pyrimido[4,5-b][1,4]diazepin-2-yl)amino)-N-(1-((1-(2-(2,6-dioxopiperidin-3-yl)-1,3-dioxoisoindolin-4-yl)pyrrolidin-3-yl)methyl)piperidin-4-yl)-3-methoxybenzamide] | ++ (++<0.6)

More lines, now with the values ahead:

Row | Activity: ratio of the luminescense value of each Exemplary Compound treatment group to DMSO treatment group | SMILES
10 | ++ (++<0.6) | COc1cc(C(=O)NCCOCCOCCOCCOCCNc2cccc3c2C(=O)N(C2CCC(=O)NC2=O)C3=O)c(N2CCN(C)CC2)cc1Nc1ncc2c(n1)N(C1CCCC1)CC(F)(F)C(=O)N2C (centres unmarked) [Compound 224, 4-((9-cyclopentyl-7,7-difluoro-5-methyl-6-oxo-6,7,8,9-tetrahydro-5H-pyrimido[4,5-b][1,4]diazepin-2-yl)amino)-N-(14-((2-(2,6-dioxopiperidin-3-yl)-1,3-dioxoisoindolin-4-yl)amino)-3,6,9,12-tetraoxatetradecyl)-5-methoxy-2-(4-methylpiperazin-1-yl)benzamide]
11 | + (+<0.7) | COc1cc(C(=O)NC2CCN(C(=O)CCCCCOC3CN(c4cccc5c4C(=O)N(C4CCC(=O)NC4=O)C5=O)C3)CC2)ccc1Nc1ncc2c(n1)N(C1CCCC1)CC(F)(F)C(=O)N2C (centres unmarked) [Compound 199, 4-((9-cyclopentyl-7,7-difluoro-5-methyl-6-oxo-6,7,8,9-tetrahydro-5H-pyrimido[4,5-b][1,4]diazepin-2-yl)amino)-N-(1-(6-((1-(2-(2,6-dioxopiperidin-3-yl)-1,3-dioxoisoindolin-4-yl)azetidin-3-yl)oxy)hexanoyl)piperidin-4-yl)-3-methoxybenzamide]
12 | ++ (++<0.6) | COc1cc(C(=O)NCCOCCOCCNc2cccc3c2C(=O)N(C2CCC(=O)NC2=O)C3=O)c(N2CCN(C)CC2)cc1Nc1ncc2c(n1)N(C1CCCC1)CC(F)(F)C(=O)N2C (centres unmarked) [Compound 222, 4-((9-cyclopentyl-7,7-difluoro-5-methyl-6-oxo-6,7,8,9-tetrahydro-5H-pyrimido[4,5-b][1,4]diazepin-2-yl)amino)-N-(2-(2-(2-((2-(2,6-dioxopiperidin-3-yl)-1,3-dioxoisoindolin-4-yl)amino)ethoxy)ethoxy)ethyl)-5-methoxy-2-(4-methylpiperazin-1-yl)benzamide]
13 | ++ (++<0.6) | COc1cc(C(=O)N2CCC(N3CCN(CCOCCCNc4ccc5c(c4)C(=O)N(C4CCC(=O)NC4=O)C5=O)CC3)CC2)c(F)cc1Nc1ncc2c(n1)N(C1CCCC1)CC(F)(F)C(=O)N2C (centres unmarked) [Compound 192, 5-((3-(2-(4-(1-(4-((9-cyclopentyl-7,7-difluoro-5-methyl-6-oxo-6,7,8,9-tetrahydro-5H-pyrimido[4,5-b][1,4]diazepin-2-yl)amino)-2-fluoro-5-methoxybenzoyl)piperidin-4-yl)piperazin-1-yl)ethoxy)propyl)amino)-2-(2,6-dioxopiperidin-3-yl)isoindoline-1,3-dione]
14 | + (+<0.7) | COc1cc(C(=O)NN2CCN(C3CN(c4cccc5c4C(=O)N(C4CCC(=O)NC4=O)C5=O)C3)CC2)ccc1Nc1ncc2c(n1)N(C1CCCC1)CC(F)(F)C(=O)N2C (centres unmarked) [Compound 200, 4-((9-cyclopentyl-7,7-difluoro-5-methyl-6-oxo-6,7,8,9-tetrahydro-5H-pyrimido[4,5-b][1,4]diazepin-2-yl)amino)-N-(4-(1-(2-(2,6-dioxopiperidin-3-yl)-1,3-dioxoisoindolin-4-yl)azetidin-3-yl)piperazin-1-yl)-3-methoxybenzamide]

From patent US20250114460A1, “NOVEL PLK1 DEGRADATION INDUCING COMPOUND” (UPPTHERA, INC., priority 2021, published 2025)
